Measured values reported in PMC11938273 (Journal of Chemical Information and Modeling, 2025).
Like-named read-outs stand apart in the source and are kept apart here.

Experiments:
[1] = mouse, in vivo
[2] = in vivo; cited from earlier work

| Molecule | CNS status [1] | CNS status [2] |
| --- | --- | --- |
| COC(=O)[C@H]1[C@@H](c2ccc(I)cc2)C[C@@H]2CC[C@H]1N2C/C=C/I [Me@IPICIT, Methyl (1R,2S,3S,5S)-3-(4-iodophenyl)-8-[(2E)-3-iodo-2-propen-1-yl]-8-azabicyclo [3.2.1]octane-2-carboxylate] | Positive | – |
| COC(=O)[C@H]1[C@@H](c2ccc(I)cc2)C[C@@H]2CC[C@H]1N2C [beta-CIT, (1R,2S,3S,5S)-methyl-3-(4-iodophenyl)-8-methyl-8-azabicyclo [3.2.1]octane-2-carboxylate] | – | Positive |
| CN1[C@H]2CC[C@@H]1[C@@H](c1cc(-c3ccccc3)no1)[C@@H](c1ccc(Cl)cc1)C2 [beta-CPPIT, 5-((1R,2S,3S,5S)-3-(4-chlorophenyl)-8-methyl-8-azabicyclo[3.2.1]octan-2-yl)-3-phenylisoxazole] | – | Positive |
| CNC(C)C(O)c1cccc(O)c1 (centres unmarked) [mHED, 3-[1-Hydroxy-2-(methylamino)propyl]phenol] | – | Negative |
| Teicoplanin | – | Negative |
